ChEMBL document CHEMBL1201862, “PubChem BioAssay data set” (2004)
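Grown in 96-well plates, cells were treated for 48 hours with each compound at five concentrations. Insufficient inhibition: endpoint recorded as highest concentration tested. GI50 = concentration required for 50% inhibition of growth.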 Active and inactive are the calls of the source. Cut-off read from the data, not from the text of the source: active = GI50 up to about 1.1 µM and inactive = higher.

Columns and labels:
Test in all cases: inhibition of tumour cell growth, NCI panel, 48 h
SNB-78 = test system: SNB-78
LXFL 529 = test system: LXFL 529
DMS-273 = test system: DMS-273
DLD-1 = test system: DLD-1
M19-MEL = test system: M19-MEL
RXF 631 = test system: RXF 631
XF498 = test system: XF498
DMS-114 = test system: DMS-114
HOP-18 = test system: HOP-18

Measured: GI50

CCNC(=O)C(O)C1(O)CCC2[C@@H]3CCC4=CC(=O)C=C[C@]4(C)C3[C@@H](O)C[C@@]21C (stereo partly drawn)
inactive: SNB-78 > 100 µM | LXFL 529 > 100 µM | DMS-273 > 100 µM | DLD-1 > 100 µM | M19-MEL > 100 µM | RXF 631 > 100 µM | XF498 > 100 µM | DMS-114 60.7 µM | HOP-18 33.3 µM

C=C(C)c1nc(Oc2ccccc2)nc(Oc2ccccc2)n1
inactive: SNB-78 5.4 µM | LXFL 529 2 µM | DMS-273 6.43 µM | DLD-1 2.72 µM | M19-MEL 2.88 µM | RXF 631 3.69 µM | XF498 1.73 µM | DMS-114 3.01 µM | HOP-18 16.6 µM

O=C(c1ccccc1)[C@H]1Nc2ccc(Cl)cc2[C@H]2CCC[C@@H]12
inactive: SNB-78 51.3 µM | LXFL 529 17.9 µM | DMS-273 36.1 µM | DLD-1 21.8 µM | M19-MEL 27.6 µM | RXF 631 36.1 µM | XF498 17.1 µM | DMS-114 23.6 µM | HOP-18 12.3 µM

S=P1(c2ccccc2)Nc2ccc(Cl)cc2N1 (stereo not drawn)
inactive: SNB-78 23.5 µM | LXFL 529 17.6 µM | DMS-273 > 100 µM | DLD-1 > 100 µM | M19-MEL 14.2 µM | RXF 631 85.7 µM | XF498 > 100 µM | DMS-114 26.6 µM | HOP-18 > 100 µM

COc1cc2c3c(c1OC)/C(=N/OS(=O)(=O)c1ccc(C)cc1)CC3N(S(=O)(=O)c1ccc(C)cc1)CC2 (stereo not drawn)
inactive: SNB-78 41.7 µM | LXFL 529 > 100 µM | DMS-273 > 100 µM | DLD-1 > 100 µM | M19-MEL > 100 µM | RXF 631 66.1 µM | XF498 > 100 µM | DMS-114 > 100 µM | HOP-18 > 100 µM

O=C(O)C1=CCCc2ccc3ccccc3c21
inactive: SNB-78 > 100 µM | LXFL 529 > 100 µM | DMS-273 > 100 µM | M19-MEL > 100 µM | RXF 631 > 100 µM | XF498 > 100 µM | DMS-114 > 100 µM | HOP-18 21.6 µM
